Reference: patent publication US5541163A, “Renin inhibiting N-(2-amino-2-oxoethyl)butanediamide derivatives” (Bio-Mega/Boehringer Ingelheim Research Inc., priority 1993, dated 1996)

Target: T1, human renin (Homo sapiens, UniProt P00797)
T1 construct: A human plasma pool is used as the source of both the substrate (angiotensinogen) and the enzyme (renin); from tissue; host or cells: human plasma pool
T1 sequence (P00797 67-406): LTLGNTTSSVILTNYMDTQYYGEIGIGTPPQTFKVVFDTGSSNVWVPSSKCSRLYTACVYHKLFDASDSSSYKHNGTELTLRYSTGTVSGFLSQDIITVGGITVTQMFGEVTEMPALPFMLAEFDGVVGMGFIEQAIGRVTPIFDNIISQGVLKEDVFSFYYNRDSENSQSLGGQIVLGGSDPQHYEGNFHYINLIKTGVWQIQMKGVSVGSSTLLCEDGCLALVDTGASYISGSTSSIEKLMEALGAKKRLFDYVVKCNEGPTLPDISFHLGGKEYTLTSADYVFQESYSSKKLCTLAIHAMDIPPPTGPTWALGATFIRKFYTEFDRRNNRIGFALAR
Test: Plasma renin assay (inhibition of human renin, angiotensin I by RIA)
Format: biochemical
Settings: human plasma pool, pH 6.0, 2 h incubation at 37°
Protocol: The assay is performed as follows: The test compound (i.e. the inhibitor) is dissolved in dimethylsulfoxide (1 mM stock solution) and diluted with an aqueous buffer solution of 270 mM 2-(N-morpholino)ethanesulfonic acid and 1% human serum albumin (pH 5.85, also containing dimercaprol and 8-hydroxyquinoline sulfate in accordance with the instructions of the RIA kit noted below) to give an assay mixture in which the final dimethylsulfoxide content is 1% (v/v).
A human plasma pool is used as the source of both the substrate (angiotensinogen) and the enzyme (renin). The reaction is initiated by the addition of 50 μL of human plasma pool to 50 μL of various concentrations of inhibitor in the 1% dimethylsulfoxide assay buffer. The plasma renin activity is measured by the amount of angiotensin I generated at pH 6.0 following a 2 h incubation at 37°.
Quantitation of angiotensin I is performed by radioimmunoassay (RIA kit from New England Nuclear-Dupont, Mississauga, ON, Canada). The enzymatic activity of renin is expressed in ng of angiotensin I generated (/mL/2 h). The extent of inhibition of the reaction is determined from the amount of angiotensin I generated in reference to a control prepared without inhibitor. Nonlinear regression analysis is used to calculate the IC50 values, i.e. the molar concentration of the test compound required to cause a 50% inhibition of the enzyme activity.

Structure (SMILES)	IC50 [nM]
CC(C)C[C@H](O)[C@H](O)[C@H](CC1CCCCC1)NC(=O)[C@@H](CC(=O)N(CC(=O)N(C)C)C[C@@H](C)c1ccccc1)Cc1nccs1 [Compound 40, N^4-[2-(dimethylamino)-2-oxoethyl]-N^4-[2 (S)-phenylpropyl]-N^1-[1(S)-(cyclohexylmethyl)-2(R),3(S)-dihydroxy-5-methylhexyl]-2(S)-(2-thiazolylmethyl)butanediamide]	6.7
CC(C)C[C@H](O)[C@H](O)[C@H](CC1CCCCC1)NC(=O)[C@@H](CC(=O)N(CC(=O)N(C)CCc1ccccn1)Cc1ccccc1)Cc1nccs1 [Compound 41, N^4-benzyl-N^4 -{2-{methyl[2-(2-pyridinyl)ethyl]amino}-2-oxoethyl}-N^1-[1(S)-(cyclohexylmethyl)-2(R),3(S)-dihydroxy-5-methylhexyl]-2(S)-(2-thiazolylmethyl)butanediamide]	3.5
C[C@@H](c1ccccc1)N(CC(=O)N(C)C)C(=O)C[C@@H](CC1CC1)C(=O)N[C@@H](CC1CCCCC1)[C@@H](O)[C@@H]1CC(C)(C)N(C)C1=O [Compound 42, N^4-[2-(dimethylamino)-2-oxoethyl]-N^4-[1(S)-phenylethyl]-N^1-[1(S)-(cyclohexylmethyl)-2(S)-hydroxy-2-(1,5,5-trimethyl-2-oxopyrrolidin-3(S)-yl)ethyl]-2(R)-(cyclopropylmethyl)butanediamide]	55
C[C@@H](c1ccccc1)N(CC(=O)N(C)C)C(=O)C[C@@H](Cc1csc(N)n1)C(=O)N[C@@H](CC1CCCCC1)[C@@H](O)[C@@H]1CC(C)(C)N(C)C1=O [Compound 44, N^4-[2-(dimethylamino)-2-oxoethyl]-N^4-[1(S)-phenylethyl]-N^1-[1(S)-(cyclohexylmethyl)-2(S)-hydroxy-2-(1,5,,5-trimethyl-2-oxopyrrolidin-3(S)-yl)ethyl]-2(R)-[(2-amino-4-thiazolyl)methyl]butanediamide]	2.4
CC(C)OC(=O)[C@H](O)[C@H](CC1CCCCC1)NC(=O)[C@@H](CC(=O)N(CC(=O)N(C)C)[C@@H](C)c1ccccc1)Cc1csc(N)n1 [Compound 45, N^4-[2-(dimethylamino)-2-oxoethyl]-N^4-[1(S)-phenylethyl]-N^4-[1(S)-(cyclohexylmethyl)-2(R)-hydroxy-3-(1-methylethoxy)-3-oxopropyl]-2(R)-[(2-amino-4-thiazolyl)methyl]-butanediamide]	16
CC(C)C[C@H](O)[C@H](O)[C@H](CC1CCCCC1)NC(=O)[C@@H](CC(=O)N(CCc1ccccn1)CC(=O)N(C)C)CC1CC1 [Compound 51, N^4-[2-(dimethylamino)-2-oxoethyl]-N^4-[2-(2-pyridinyl)ethyl]-N^1-(1(S)-(cyclohexylmethyl)-2(R),3(S)-dihydroxy-5-methylhexyl]-2(R)-(cyclopropylmethyl)butanediamide]	145
CC(C)C[C@H](O)[C@H](O)[C@H](CC1CCCCC1)NC(=O)[C@@H](CC(=O)N(CC(=O)N(C)C)Cc1ccccc1)Cc1csc(N)n1 [Compound 52, N^4-benzyl-N^1-[2-(dimethylamino)-2-oxoethyl)-N^1-[1(S)-(cyclohexylmethyl)-2(R),3(S)-dihydroxy-5-methylhexyl]-2(R)-[(2-amino-4-thiazolyl)-methyl]butanediamide]	3
CC(C)C[C@H](O)[C@H](O)[C@H](CC1CCCCC1)NC(=O)[C@@H](CC(=O)N(CC(=O)N(C)CCc1ccccn1)Cc1ccccc1)Cc1cscn1 [Compound 53, N^4-benzyl-N^4 -{2-{methyl[2-(2-pyridinyl)ethyl]amino}-2-oxoethyl}-N^1-[1(S)-(cyclohexylmethyl)-2(R),3(S)-dihydroxy-5-methylhexyl]-2(R)-(4-thiazolylmethyl)butanediamide]	2.5
CC(C)C[C@H](O)[C@H](O)[C@H](CC1CCCCC1)NC(=O)[C@@H](CC(=O)N(CC(=O)N(C)C)CC1CCCCC1)Cc1ccccc1 [Compound 55, N^4-(cyclohexylmethyl)-N^4-[2-(dimethylamino)-2-oxoethyl]-N^1-[1(S)-(cyclohexylmethyl)-2(R),3(S)-dihydroxy-5-methylhexyl]-2(R)-(phenylmethyl)butanediamide]	16

Continued by falling IC50, values first:

IC50 [nM]	Structure (SMILES)
18.5	Cc1nc(C[C@H](CC(=O)N(CC(=O)N(C)C)CC2CCCCC2)C(=O)N[C@@H](CC2CCCCC2)[C@@H](O)[C@@H](O)CC(C)C)cs1 [Compound 47, N^4-(cyclohexylmethyl)-N^4-[2-(dimethylamino)-2-oxoethyl]-N^1-[1(S)-(cyclohexylmethyl)-2(R),3(S)-dihydroxy-5-methylhexyl]-2(R)-[(2-methyl-4-thiazolyl)methyl]butanediamide]
12	CC(C)C[C@H](O)[C@H](O)[C@H](CC1CCCCC1)NC(=O)[C@@H](CC(=O)N(CC(=O)N(C)CCc1ccccn1)CC1CCCCC1)CC1CC1 [Compound 46, N^4-(cyclohexylmethyl)-N^4 -{2-{methyl-[2-(2-pyridinyl)-ethyl]amino}-2-oxoethyl}-N^1-[1(S)-(cyclohexylmethyl)-2(R),3(S)-dihydroxy-5-methylhexyl]-2(R)-(cyclopropylmethyl)butanediamide]
6.8	C[C@@H](c1ccccc1)N(CC(=O)N(C)C)C(=O)C[C@@H](Cc1csc(N)n1)C(=O)N[C@@H](CC1CCCCC1)[C@@H](O)[C@@H](O)C1CC1 [Compound 43, N^4-[2-(dimethylamino)-2-oxoethyl]-N^4-[1(S)-phenylethyl]-N^1-[1(S)-(cyclohexylmethyl)-2(R),3(S)-dihydroxy-(3-cyclopropylpropyl)]-2(R)-[(2-amino-4-thiazolyl)methyl]-butanediamide]
4	CC(C)C[C@H](O)[C@H](O)[C@H](CC1CCCCC1)NC(=O)[C@@H](CC(=O)N(CC(=O)N(C)C)[C@@H](C)c1ccccc1)Cc1nccs1 [Compound 54, N^4-[2-(dimethylamino)-2-oxoethyl]-N^4-[1(S)-phenylethyl]-N^1-[1(S)-(cyclohexylmethyl)-2(R),3(S)-dihydroxy-5-methylhexyl]-2(S)-(2-thiazolylmethyl)butanediamide]
2.2	CC(C)C[C@H](O)[C@H](O)[C@H](CC1CCCCC1)NC(=O)[C@@H](CC(=O)N(CC(=O)N(C)CCc1ccccn1)CC1CCCCC1)Cc1csc(N)n1 [Compound 50, N^4-(cyclohexylmethyl)-N^4 -{2-{methyl-[2-(2-pyridinyl)ethyl]-amino}-2-oxoethyl}-N^1-[1(S)-(cyclohexylmethyl)-2(R),3(S)-dihydroxy-5-methylhexyl]-2(R)-[(2-amino-4-thiazolyl)methyl]butanediamide]
1.5	CC(C)C[C@H](O)[C@H](O)[C@H](CC1CCCCC1)NC(=O)[C@@H](CC(=O)N(CC(=O)N1CCOCC1)CC1CCCCC1)Cc1csc(N)n1 [Compound 49]
0.9	CC(C)C[C@H](O)[C@H](O)[C@H](CC1CCCCC1)NC(=O)[C@@H](CC(=O)N(CC(=O)N(C)C)CC1CCCCC1)Cc1csc(N)n1 [Compound 48, N^4-(cyclohexylmethyl)-N^4-[2-(dimethylamino)-2-oxoethyl]-N^1-[1(S)-(cyclohexylmethyl)-2(R),3(S)-dihydroxy-5-methylhexyl]-2(R)-[(2-amino-4-thiazolyl)methyl]butanediamide]
